Test results as given in patent US20230233533A1, “COMPOSITIONS, METHODS OF TREATING AND PREVENTING FUNGAL INFECTIONS, AND METHODS OF INHIBITING PRP8 INTEIN EXPRESSION” (Health Research, Inc., priority 2020, published 2023).
In brackets after ≈: the same amount, converted by molar mass. Several values for one entry are separate records, joined by “and”; a condition that tells them apart may be missing. Equal values may be shown once. Read-outs that look alike come from different tables or passages of the source.

What was measured:
[1] = target: T1, Prp8 intein (Cryptococcus gattii, UniProt E6R027); assay: Split GFP-Prp8i intein splicing assay; type: biochemical; settings: for IC50: split GFP-Prp8 intein splicing
Protocol: Cloning, expression and purfication—The split GFP-Prp8i was constructed using a mega-PCR mutagenesis approach. […] After digestion with Dpn I restriction enzyme, the PCR product was transformed into DH5α Escherichia coli. Clones were verified by plasmid DNA sequencing. The expression, refolding and purification of the GFP-Prp8i fusion protein were carried out as described previously.
[…] Then 100 μl 2×TCEP was added to a final concentration of 20 μM. The reactions were incubated at 25° C. overnight. […] Two readings were taken, one prior to addition of TCEP (I0) and one after incubation overnight with TCEP (If). Fluorescence/luminescence differences (ΔFluorescence or ΔLuminescence) were defined as If−I0 for each well. […] DMF control served as 100% splicing activity.
Split GFP-Prp8 and CJGFP-Prp8 intein splicing assays—Using black and clear bottom 96-well plates, the DPNB-treated, -refolded and -concentrated GFP-Prp8 or CfGFP-Prp8 fusion protein (0.5 μM) was incubated with compounds or Dimethylsulfoxide (DMSO) solvent control for 30 min at 25° C. in a 100 μl intein splicing buffer (20 mM Bis-tris propane, 0.5 M NaCl, 0.5 M arginine, 1 mM EDTA, and 0.05% CHAPS). Then 100 μl 2×TCEP was added to a final concentration of 20 μM. The reactions were incubated at 25° C. overnight. […] Two readings were taken, one prior to addition of TCEP (I0) and one after incubation overnight with TCEP (If). Fluorescence/luminescence differences (ΔFluorescence or ΔLuminescence) were defined as If−I0 for each well. […] DMSO control served as 100% splicing activity.

[2] = target: T1, Prp8 intein; assay: Split Renilla luciferase RLuc-Prp8 intein splicing assay; type: biochemical; settings: split Renilla luciferase RLuc-Prp8 intein splicing
Protocol: Split luciferase Prp8 intein splicing assay—The split RLuc-Prp8 fusion protein was carried out and monitored using a Veritas luminometer, as described previously.
Split luciferase RLuc-Prp8 and NnLuc-Prp8 intein splicing assays—The split RLuc-Prp8 intein splicing assay was carried out and monitored using a Veritas luminometer, as described previously. […] Microbes. Infect. […] For NnLuc-Prp8 intein splicing assay, the NnLuc-prp8 is diluted in assay buffer (50 mM Tris, 0.1% BSA, 1 mM EDTA, pH 7.4) and 50 ul is added to each well in 96 well black plates. Test molecules or the solvent was added and incubated for 30 to 60 min. A splicing inducer TCEP (50 ul, 100 μM) is added and incubated for 24 h. Luciferase substrate (Furimazine, 25 ul 1:10,000 diluted) is added and luminescence is read using a luminescence reader. IC50 is calculated using Graphpad prism.

[3] = tested on: human lung carcinoma cell line A549; assay: in vitro; type: cell-based; settings: 48 h, MTT
Outline: (§1)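 A549 cells (5×10^3 per well) were exposed to compounds at 37 °C for 48 h, and viability was read by MTT assay; N=3.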

[4] = tested on: C. neoformans H99 strain; assay: Fungal susceptibility test, broth microdilution MIC; type: cell-based, Cryptococcus neoformans
Outline: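 Compound MICs were determined by broth microdilution using a compound concentration series.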

[5] = tested on: C. neoformans; assay: Sensititre YeastOne Y09 AST drug combination assay; type: cell-based, Cryptococcus neoformans; settings: 6G-318S at 0.16 ug/ml, C. neoformans H99
Protocol: Sensititre YeastOne Y09 AST assay—Fungal susceptibility to a combination of compounds was carried out using the Sensititre YeastOne Y09 AST assay kit (Thermofisher), according to the manufacturer's manual. Briefly, fungal C. neoformans cells in exponential growth phase were diluted to a final OD530 of 0.1. Then 20 μl diluted cells were further diluted into 10 ml YPD as a stock. […] The stock C. neoformans (100 μl, ˜200 cells) were dispensed into the compound-ready 96-well plate. The fungal cells (treated or with DMF) were incubated at 30° C. for 48 h. The cell cultures were visualized by naked eye. The MIC break points were determined according to manufacturer's instructions.

[6] = tested on: C. neoformans H99; assay: Checkerboard assay; type: cell-based, Cryptococcus neoformans; settings: for MIC: Cryptococcus neoformans, H99, 48 h
Protocol: Compounds were initially dissolved in DMSO and diluted in RPMI-1640-MOPS media four times the targeted final concentration and 50 μl was added per well. The second compound was similarly diluted and 50 μl was added per well, to a final volume of 100 μl/well. C. neoformans […] inoculum (100 μl) prepared from freshly grown cultures and diluted to an absorbance of 0.1 at 530 nm in water and further diluted (1:500) in RPMI-1640-MOPS was added to each well. To determine the fungicidal concentration of a compound, the wells with no visible growth were serially diluted, plated on SDA, and incubated at 30° C. for 48-72 h for the recovery of colony-forming units. Additionally, the cell density of treated and untreated wells was also estimated by reading absorbance at 630 nm using an EL808 reader (Bio-Tek). Percentage of inhibition compared to that of the no-drug-control well was calculated. […] Fractional inhibitory concentration (FIC) index value is calculated as the […]. The FIC index value is then used to categorize the interaction of the two compounds tested. […] Doern, C., “When Does 2 plus 2 Equal 5?A Review of Antimicrobial Synergy Testing,” Journal of Clinical Microbiology 52(12):4124-4128 (2014), which is hereby incorporated by reference in its entirety.

[7] = tested on: trypsin; assay: Trypsin protease inhibition (Abz FRET substrate); type: biochemical; settings: compound at 400 μM
Protocol: (§2) Trypsin and papain protease inhibition—An Abz FRET substrate (Abz-RRRRSAG-nTyr) developed previously (Li et al., “Existing Drugs as Broad-Spectrum and Potent Inhibitors for Zika Virus by Targeting NS2B-NS3 Interaction,” Cell Research 27(8):1046-1064 (2017), which is hereby incorporated by reference in its entirety) was used as the substrate for inhibition of trypsin and papain proteases. In black and clear-bottom 96-well plates, 1 μg trypsin (Sigma-Aldrich) was incubated with DMF or compounds at 400 μM at 25° C. for 30 min in a 70 μl reaction buffer containing 20 mM Tris, pH 8.0, 100 mM NaCl, 5% Glycerol, and 0.05% CHAPS. For papain, 1 μg Papain (Sigma-Aldrich) was incubated with compounds at 400 μM at 25° C. for 30 min in a 70 μl reaction buffer composed of 1.1 mM EDTA, 0.067 mM β-mercaptoethanol, 5.5 mM cysteine. […]

[8] = target: T2, papain (Carica papaya, UniProt P00784); assay: Papain protease inhibition (Abz FRET substrate); type: biochemical; settings: compound at 400 μM
T2 construct: purchased Sigma-Aldrich
T2 sequence (P00784 134-345): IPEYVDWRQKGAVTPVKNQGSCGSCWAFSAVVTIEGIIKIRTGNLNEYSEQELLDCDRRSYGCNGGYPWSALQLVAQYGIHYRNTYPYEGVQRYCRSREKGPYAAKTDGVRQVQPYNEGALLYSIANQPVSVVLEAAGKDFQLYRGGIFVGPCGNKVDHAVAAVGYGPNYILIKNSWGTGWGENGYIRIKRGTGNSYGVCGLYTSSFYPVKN
Protocol: as §2

[9] = in vitro; type: cell-based, human; settings: human, CC50 A549
Outline: as §1

[10] = tested on: Candida albicans; assay: Fungal susceptibility test, broth microdilution MIC; type: cell-based; settings: microdilution assay
Protocol: Fungal susceptibility test—The fungal susceptibility test was carried out with a compound concentration series as described. Li et al., “Cisplatin Protects Mice From Challenge of Cryptococcus neoformans by Targeting the Prp8 Intein,” Emerging Microbes & Infections 8(1):895-908 (2019), which is hereby incorporated by reference in its entirety. The broth microdilution method was used to determine the compound MIC values against C. neoformans. In brief, serial 2-fold dilutions of the 6G-318SS (20 to 0.03 μg/ml) were made in 100 μl RPMI-1640 medium with MOPS in 96-well U-bottom plates. The C. neoformans H99 strain (100 μl of 0.5×10^5/ml) in log phase was added to each well. […] The MIC break-point was defined as no visible fungal growth by naked eye or by determining the 90% growth inhibition using absorbance at 630 nm, compared with no inhibitor control in a 96-well plate.
C. albicans, a fungus without the Prp8 intein, was also used as a control.

[11] = target: T1, Prp8 intein; settings: value from Li et al. 2019; read-out: IC50 determined using the RLuc-Prp8 assay; cited from earlier work

T1 sequence (E6R027 entry or part of it): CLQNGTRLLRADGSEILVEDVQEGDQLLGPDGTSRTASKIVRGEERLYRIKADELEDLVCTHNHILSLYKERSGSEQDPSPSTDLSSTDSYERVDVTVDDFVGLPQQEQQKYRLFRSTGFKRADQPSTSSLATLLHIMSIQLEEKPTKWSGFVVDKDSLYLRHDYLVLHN

Compound “5-((4-Chlorophenyl)sulfonyl)-N-(6-fluoropyridin-3-yl)-1,2,3-thiadiazole-4-carboxamide [JMX0581]” has an IC50 [1] of 6.1 µM, an IC50 [2] of 11.2 µM and a CC50 [3] of 92.4 µM.
In the case of “5-((4-Chlorophenyl)thio)-N-(6-fluoropyridin-3-yl)-1,2,3-thiadiazole-4-carboxamide [JMX0580]”, the IC50 [1] is reported as 35.3 µM, the IC50 [2] is reported as 6.4 µM and the CC50 [3] is reported as 33.1 µM. It also gave an MIC ([4]; C. neoformans H99, microbroth dilution, read-out: MIC H99) greater than 100 µM.
With `Nc1nc(=O)[nH]cc1F` [5-FC, 5-fluorocytosine, reference compound] the “reduction of MIC of known antifungal on addition of 6G-318S” value (“reduction of MIC of known antifungal” for short) [5] was 2 fold, the MIC [6] was 8.1 µg/mL and the MIC-comb ([6]; combination 6G-318S + 5-FC, well D6) was 2.025 µg/mL.
With `O=C(Nc1ccc(F)cc1F)c1nnsc1S(=O)(=O)c1ccc(Cl)cc1` [6G-319S, 5-((4-Chlorophenyl)sulfonyl)-N-(2,4-difluorophenyl)-1,2,3-thiadiazole-4-carboxamide] the inhibition at 20 µM ([1]; compound at 20 μM, read-out: inhibition of the GFP-Prp8i signal / Prp8 intein splicing) was greater than 50%, the IC50 [1] was 9.7 µM and the “inhibition of trypsin protease activity” value [7] was “neither 6G-318S, 6G-319S, nor cisplatin significantly inhibited”. For the same compound, the “inhibition of papain protease activity” value [8] was “neither 6G-318S, 6G-319S, nor cisplatin significantly inhibited”, the CC50 at 48 h [9] was 44.9 µg/mL and ~108 µM and the MIC ([4]; Cryptococcus neoformans, H99STRAIN, H99 strain, 48 h, 30° C., read-out: MIC C. neoformans) was 1.3 µg/mL. It also gave an MIC [10] of 20.8 µg/mL (≈ 50 µM).
In the case of `C[C@@H]1[C@H](O)[C@@H](C)/C=C/C=C/C=C/C=C/C=C/C=C/C=C/[C@H](O[C@@H]2O[C@H](C)[C@@H](O)[C@H](N)[C@@H]2O)C[C@@H]2O[C@](O)(C[C@@H](O)C[C@@H](O)[C@H](O)CC[C@@H](O)C[C@@H](O)CC(=O)O[C@H]1C)C[C@H](O)[C@H]2C(=O)O` [AmB, amphotericin B, reference compound], the “reduction of MIC of known antifungal” value [5] is reported as “more than 4 fold”, the MIC-alone ([6]; C. neoformans H99, 48 h, 90% inhibition) is reported as 0.578 µg/mL and the MIC-comb ([6]; combination 6G-318S + AmB, well F6) is reported as 0.144 µg/mL.
With `CCC(C)n1ncn(-c2ccc(N3CCN(c4ccc(OCC5COC(Cn6cncn6)(c6ccc(Cl)cc6Cl)O5)cc4)CC3)cc2)c1=O` (stereo not shown) [IZ, itraconazole, reference compound] the “reduction of MIC of known antifungal” value [5] was 2 fold, the MIC [6] was 0.176 µg/mL and the MIC-comb ([6]; combination 6G-318S + IZ, well D6) was 0.088 µg/mL.
With `C[C@@H](c1ncncc1F)[C@](O)(Cn1cncn1)c1ccc(F)cc1F` [Vor, Voriconazole, reference compound] the “reduction of MIC of known antifungal” value [5] was 2 fold, the MIC [6] was 0.044 µg/mL and the MIC-comb ([6]; combination 6G-318S + Vor, well G3) was 0.087 µg/mL.
With `N.N.[Cl][Pt][Cl]` [cisplatin, reference compound] the “fluorescence increase of the GFP-Prp8i fusion” value ([1]; cisplatin 40 μM, GFP-Prp8i 200 nM) was “significantly reduced”, the IC50 [1] was 6.7 µM and the “inhibition of trypsin protease activity” value [7] was “neither 6G-318S, 6G-319S, nor cisplatin significantly inhibited”. The “inhibition of papain protease activity” value [8] was “neither 6G-318S, 6G-319S, nor cisplatin significantly inhibited” and the IC50 [11] was 2.5 µM.
